Laboratory results: patent publication US20140094424A1, “MICROBICIDAL COMPOSITIONS AND METHODS OF PRODUCTION USE THEREOF” (priority 2011, published 2014)

What was measured:
[1] = tested on: Penicillium notatum-KMO (R); assay: MBC (minimum bactericidal concentration) test in Wash NEXT reagent; type: cell-based; parameters: key to MBC test growth score: number = actual colony count; + full mat, − no growth
Experimental: (§1) The stock organisms were thawed and subbed prior to beginning the MBC test. Molds were subbed to SDA plates one week before, and the bacteria were subbed to TAT agar plates 24 hours prior to the start of the test. All plates were incubated at 32 degrees C.
(§2) For the molds, each organism was inoculated into 40 ml sterile saline in a centrifuge tube to create a density of MacFarland #5. Two serial dilutions of 1:100 were then made, resulting in 10^−2 and 10^−4 concentrations. Each dilution was vortexed before it was sampled, and sterile Eppendorf pipette tips were used to make each transfer. The 10^−4 dilution was spiral plated to yield the initial inoculum concentration.
(§3) MBC trays were set up with the prepared test reagent. Using a Matrix pipettor, 100 μl aliquots of reagent were distributed into the wells, diluting the amount of preservative from 100% to 10% increments, using unpreserved reagent as the diluent. In one row, 100% non-preserved reagent acted as a positive control and served as a benchmark for a full mat of growth. In well #12H, 100 μl unpreserved reagent was pipetted, and this well was not inoculated with organisms, as it served as the negative control. Once all of the trays were prepared, the prepared bacteria/mold suspensions were poured into the MBC inoculating trays. These were placed onto the reagent trays, and 0.01 ml inoculum was introduced into the 100 μl of reagent in each well.
(§4) This was done by dipping a sterile cotton swab into each well, and absorbing all of the liquid in the well. The swab was rolled onto a TAT agar plate ensuring that the entire swab touches the agar. Plates ware incubated at 32 degrees C. for 48 hours to 7 days, depending on the organism. Observations for growth were performed by a scoring matrix using + for a full mat, +/− for some growth, a numerical value for an actual colony count, and—for no growth.
(§5) Below are tables that contain the data obtained in Example 1. The MBC test is scored by (+) indicating a full grown mat of organisms, equivalent to the organisms in the unpreserved reagent. (+/−) indicates there is some kill evident disturbing that mat or bringing the quantities down to an almost countable level. An actual number is the actual number of colonies growing at that concentration of preservative. (−) indicates no growth found. The MBC trays were stored at room temperature for the entire test.
(§6) The materials and methods and analysis of the MBC test were the same as in Example 1.

[2] = tested on: Aspergillus glaucus- DMO (Q); assay: as above; type: cell-based
Experimental: as §1, §2, §3, §4, §5, §6

gentamicin was tested, and the “MBC test growth score” value ([1]; 10% preservative, 8 hour) was “+”, the “MBC test growth score” value ([1]; 10% preservative, 24 hour) was “+” and the “MBC test growth score” value ([1]; 10% preservative, 48 hour) was “+/−”. For the same substance, the “MBC test growth score” value ([1]; 10% preservative, 72 hour) was “+/−”, the “MBC test growth score” value ([1]; 10% preservative, 7 day) was “+/−” and the “MBC test growth score” value ([1]; 10% preservative, 14 day) was “+/−”. For the same substance, the “MBC test growth score” value ([1]; 20% preservative, 8 hour) was “+”, the “MBC test growth score” value ([1]; 20% preservative, 24 hour) was “+” and the “MBC test growth score” value ([1]; 20% preservative, 48 hour) was “+/−”. For the same substance, the “MBC test growth score” value ([1]; 20% preservative, 72 hour) was “+/−”, the “MBC test growth score” value ([1]; 20% preservative, 7 day) was “+/−” and the “MBC test growth score” value ([1]; 20% preservative, 14 day) was “+/−”. For the same substance, the “MBC test growth score” value ([1]; 30% preservative, 8 hour) was “+”, the “MBC test growth score” value ([1]; 30% preservative, 24 hour) was “+” and the “MBC test growth score” value ([1]; 30% preservative, 48 hour) was “+/−”. The “MBC test growth score” value ([1]; 30% preservative, 72 hour) was “+/−”, the “MBC test growth score” value ([1]; 30% preservative, 7 day) was “+/−” and the “MBC test growth score” value ([1]; 30% preservative, 14 day) was “+/−”. For the same substance, the “MBC test growth score” value ([1]; 40% preservative, 8 hour) was “+”, the “MBC test growth score” value ([1]; 40% preservative, 24 hour) was “+” and the “MBC test growth score” value ([1]; 40% preservative, 48 hour) was “+/−”. The “MBC test growth score” value ([1]; 40% preservative, 72 hour) was “+/−”, the “MBC test growth score” value ([1]; 40% preservative, 7 day) was “+/−” and the “MBC test growth score” value ([1]; 40% preservative, 14 day) was 28. The “MBC test growth score” value ([1]; 50% preservative, 8 hour) was “+”, the “MBC test growth score” value ([1]; 50% preservative, 24 hour) was “+” and the “MBC test growth score” value ([1]; 50% preservative, 48 hour) was “+/−”. The “MBC test growth score” value ([1]; 50% preservative, 72 hour) was “+/−”, the “MBC test growth score” value ([1]; 50% preservative, 7 day) was “+/−” and the “MBC test growth score” value ([1]; 50% preservative, 14 day) was 25. The “MBC test growth score” value ([1]; 60% preservative, 8 hour) was “+”, the “MBC test growth score” value ([1]; 60% preservative, 24 hour) was “+” and the “MBC test growth score” value ([1]; 60% preservative, 48 hour) was “+/−”. The “MBC test growth score” value ([1]; 60% preservative, 72 hour) was “+/−”, the “MBC test growth score” value ([1]; 60% preservative, 7 day) was “+/−” and the “MBC test growth score” value ([1]; 60% preservative, 14 day) was 23. For the same substance, the “MBC test growth score” value ([1]; 70% preservative, 8 hour) was “+”, the “MBC test growth score” value ([1]; 70% preservative, 24 hour) was “+” and the “MBC test growth score” value ([1]; 70% preservative, 48 hour) was “+/−”. The “MBC test growth score” value ([1]; 70% preservative, 72 hour) was “+/−”, the “MBC test growth score” value ([1]; 70% preservative, 7 day) was 23 and the “MBC test growth score” value ([1]; 70% preservative, 14 day) was 18. For the same substance, the “MBC test growth score” value ([1]; 80% preservative, 8 hour) was “+”, the “MBC test growth score” value ([1]; 80% preservative, 24 hour) was “+” and the “MBC test growth score” value ([1]; 80% preservative, 48 hour) was “+/−”. The “MBC test growth score” value ([1]; 80% preservative, 72 hour) was “+/−”, the “MBC test growth score” value ([1]; 80% preservative, 7 day) was 16 and the “MBC test growth score” value ([1]; 80% preservative, 14 day) was 12. For the same substance, the “MBC test growth score” value ([1]; 90% preservative, 8 hour) was “+”, the “MBC test growth score” value ([1]; 90% preservative, 24 hour) was “+” and the “MBC test growth score” value ([1]; 90% preservative, 48 hour) was “+/−”. The “MBC test growth score” value ([1]; 90% preservative, 72 hour) was “+/−”, the “MBC test growth score” value ([1]; 90% preservative, 7 day) was 11 and the “MBC test growth score” value ([1]; 90% preservative, 14 day) was 9. For the same substance, the “MBC test growth score” value ([1]; 100% preservative, 8 hour) was “+”, the “MBC test growth score” value ([1]; 100% preservative, 24 hour) was “+” and the “MBC test growth score” value ([1]; 100% preservative, 48 hour) was “+/−”. For the same substance, the “MBC test growth score” value ([1]; 100% preservative, 72 hour) was “+/−”, the “MBC test growth score” value ([1]; 100% preservative, 7 day) was 7 and the “MBC test growth score” value ([1]; 100% preservative, 14 day) was 6. For the same substance, the “MBC test growth score” value ([2]; 10% preservative, 8 hour) was “+”, the “MBC test growth score” value ([2]; 10% preservative, 24 hour) was “+” and the “MBC test growth score” value ([2]; 10% preservative, 48 hour) was “+/−”. For the same substance, the “MBC test growth score” value ([2]; 10% preservative, 72 hour) was “+/−”, the “MBC test growth score” value ([2]; 10% preservative, 7 day) was “+/−” and the “MBC test growth score” value ([2]; 10% preservative, 14 day) was “+/−”. The “MBC test growth score” value ([2]; 20% preservative, 8 hour) was “+”, the “MBC test growth score” value ([2]; 20% preservative, 24 hour) was “+” and the “MBC test growth score” value ([2]; 20% preservative, 48 hour) was “+/−”. For the same substance, the “MBC test growth score” value ([2]; 20% preservative, 72 hour) was “+/−”, the “MBC test growth score” value ([2]; 20% preservative, 7 day) was “+/−” and the “MBC test growth score” value ([2]; 20% preservative, 14 day) was “+/−”. For the same substance, the “MBC test growth score” value ([2]; 30% preservative, 8 hour) was “+”, the “MBC test growth score” value ([2]; 30% preservative, 24 hour) was “+” and the “MBC test growth score” value ([2]; 30% preservative, 48 hour) was “+/−”. For the same substance, the “MBC test growth score” value ([2]; 30% preservative, 72 hour) was “+/−”, the “MBC test growth score” value ([2]; 30% preservative, 7 day) was “+/−” and the “MBC test growth score” value ([2]; 30% preservative, 14 day) was 36. For the same substance, the “MBC test growth score” value ([2]; 40% preservative, 8 hour) was “+”, the “MBC test growth score” value ([2]; 40% preservative, 24 hour) was “+” and the “MBC test growth score” value ([2]; 40% preservative, 48 hour) was “+/−”. For the same substance, the “MBC test growth score” value ([2]; 40% preservative, 72 hour) was “+/−”, the “MBC test growth score” value ([2]; 40% preservative, 7 day) was “+/−” and the “MBC test growth score” value ([2]; 40% preservative, 14 day) was 35. For the same substance, the “MBC test growth score” value ([2]; 50% preservative, 8 hour) was “+”, the “MBC test growth score” value ([2]; 50% preservative, 24 hour) was “+” and the “MBC test growth score” value ([2]; 50% preservative, 48 hour) was “+/−”. For the same substance, the “MBC test growth score” value ([2]; 50% preservative, 72 hour) was “+/−”, the “MBC test growth score” value ([2]; 50% preservative, 7 day) was 29 and the “MBC test growth score” value ([2]; 50% preservative, 14 day) was 28. The “MBC test growth score” value ([2]; 60% preservative, 8 hour) was “+”, the “MBC test growth score” value ([2]; 60% preservative, 24 hour) was “+” and the “MBC test growth score” value ([2]; 60% preservative, 48 hour) was “+/−”. For the same substance, the “MBC test growth score” value ([2]; 60% preservative, 72 hour) was “+/−”, the “MBC test growth score” value ([2]; 60% preservative, 7 day) was 25 and the “MBC test growth score” value ([2]; 60% preservative, 14 day) was 26. For the same substance, the “MBC test growth score” value ([2]; 70% preservative, 8 hour) was “+”, the “MBC test growth score” value ([2]; 70% preservative, 24 hour) was “+” and the “MBC test growth score” value ([2]; 70% preservative, 48 hour) was “+/−”. For the same substance, the “MBC test growth score” value ([2]; 70% preservative, 72 hour) was “+/−”, the “MBC test growth score” value ([2]; 70% preservative, 7 day) was 21 and the “MBC test growth score” value ([2]; 70% preservative, 14 day) was 20. For the same substance, the “MBC test growth score” value ([2]; 80% preservative, 8 hour) was “+”, the “MBC test growth score” value ([2]; 80% preservative, 24 hour) was “+” and the “MBC test growth score” value ([2]; 80% preservative, 48 hour) was “+/−”. The “MBC test growth score” value ([2]; 80% preservative, 72 hour) was “+/−”, the “MBC test growth score” value ([2]; 80% preservative, 7 day) was 16 and the “MBC test growth score” value ([2]; 80% preservative, 14 day) was 14. The “MBC test growth score” value ([2]; 90% preservative, 8 hour) was “+”, the “MBC test growth score” value ([2]; 90% preservative, 24 hour) was “+” and the “MBC test growth score” value ([2]; 90% preservative, 48 hour) was “+/−”. The “MBC test growth score” value ([2]; 90% preservative, 72 hour) was 22, the “MBC test growth score” value ([2]; 90% preservative, 7 day) was 10 and the “MBC test growth score” value ([2]; 90% preservative, 14 day) was 9. The “MBC test growth score” value ([2]; 100% preservative, 8 hour) was “+”, the “MBC test growth score” value ([2]; 100% preservative, 24 hour) was “+” and the “MBC test growth score” value ([2]; 100% preservative, 48 hour) was “+/−”. For the same substance, the “MBC test growth score” value ([2]; 100% preservative, 72 hour) was 18, the “MBC test growth score” value ([2]; 100% preservative, 7 day) was 5 and the “MBC test growth score” value ([2]; 100% preservative, 14 day) was 4.
